Measured values as given in BindingDB's records for doi:10.1016/0960-894X(95)00370-9 (1995).
pIC50: −log10 of the molar value.

Target: Type-1 angiotensin II receptor A (Rattus norvegicus) (UniProt P25095)
Assay: Tested for binding affinity against angiotensin II receptor in rat adrenal cortex

Chain of Type-1 angiotensin II receptor A (Rattus norvegicus) (P25095 whole entry, looked up): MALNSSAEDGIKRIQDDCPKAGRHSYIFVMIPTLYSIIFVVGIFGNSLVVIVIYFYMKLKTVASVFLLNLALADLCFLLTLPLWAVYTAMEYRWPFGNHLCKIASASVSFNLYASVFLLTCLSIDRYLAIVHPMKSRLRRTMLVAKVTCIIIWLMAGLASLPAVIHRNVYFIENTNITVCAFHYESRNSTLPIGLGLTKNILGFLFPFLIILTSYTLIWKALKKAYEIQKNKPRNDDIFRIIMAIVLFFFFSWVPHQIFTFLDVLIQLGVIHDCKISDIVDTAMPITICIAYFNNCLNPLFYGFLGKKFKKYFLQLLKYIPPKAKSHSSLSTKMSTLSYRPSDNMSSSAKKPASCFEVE

Row | pIC50 | Structure (SMILES)
1 | 8.36 | CCCc1cc(=O)n(CCN2C(=O)c3ccccc3C2=O)c(=O)n1Cc1ccc(-c2ccccc2-c2nnn[nH]2)cc1 [2-(2-{2,6-Dioxo-4-propyl-3-[2'-(1H-tetrazol-5-yl)-biphenyl-4-ylmethyl]-3,6-dihydro-2H-pyrimidin-1-yl}-ethyl)-isoindole-1,3-dione]
2 | 7.85 | CCCc1cc(=O)n(CCNC(=O)C(c2ccccc2)c2ccccc2)c(=O)n1Cc1ccc(-c2ccccc2-c2nnn[nH]2)cc1 [N-(2-{2,6-Dioxo-4-propyl-3-[2'-(1H-tetrazol-5-yl)-biphenyl-4-ylmethyl]-3,6-dihydro-2H-pyrimidin-1-yl}-ethyl)-2,2-diphenyl-acetamide]
